In patent US12116343B2, “Inhibitors of APOL1 and methods of using same” (Vertex Pharmaceuticals Incorporated, priority 2020, dated 2024):

Each molecule was assayed against T1, G1 APOL1 (Homo sapiens, UniProt O14791, I384M/S342G) (assay: Acute APOL1 Thallium Assay with inducible stable clones of HEK 293 cells). Conditions: HEK 293 T-Rex cells expressing G1 APOL1; read-out: Thallium Assay (IC50).
T1 construct: expressed in transfected cells
T1 sequence (O14791 28-398 S342G/I384M): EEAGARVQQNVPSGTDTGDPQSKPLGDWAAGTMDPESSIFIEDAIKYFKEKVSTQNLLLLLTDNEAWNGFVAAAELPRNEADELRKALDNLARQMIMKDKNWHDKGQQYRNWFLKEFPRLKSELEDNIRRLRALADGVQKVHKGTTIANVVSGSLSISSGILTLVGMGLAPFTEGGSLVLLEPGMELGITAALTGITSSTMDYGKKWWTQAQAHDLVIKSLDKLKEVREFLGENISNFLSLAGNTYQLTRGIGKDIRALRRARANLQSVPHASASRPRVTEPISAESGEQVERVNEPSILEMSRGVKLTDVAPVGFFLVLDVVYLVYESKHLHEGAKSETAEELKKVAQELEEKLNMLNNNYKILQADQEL
Format: cell-based
Outline: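 Tetracycline-inducible HEK293 T-Rex clone G1 DC3.25 expressing G1 APOL1, plated at 26000 cells/well in Opti-MEM with tetracycline induction. APOL1 pore activity read on FLIPR as fluorescence increase from Tl+ influx into cells loaded with a Tl+-sensitive AM-ester dye.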

SMILES | IC50
CN(CC1(CO)CCOCC1)C(=O)[C@H]1C[C@H](c2c(-c3ccc(F)cc3)[nH]c3c(F)cc(F)cc32)C1 [Compound 120] | > 1000 nM
NC(=O)[C@H]1CCCN1C(=O)[C@H]1C[C@H](c2c(-c3ccc(F)cc3)[nH]c3c(F)cc(F)cc32)C1 [Compound 153] | 250 to 1000 nM
O=C([C@H]1C[C@H](c2c(-c3ccc(F)cc3)[nH]c3c(F)cc(F)cc32)C1)N1CCO[C@H](CO)C1 [Compound 118] | > 1000 nM
O=C([C@H]1C[C@H](c2c(-c3ccc(F)cc3)[nH]c3c(F)cc(F)cc32)C1)N(CCO)CCCO [Compound 117] | > 1000 nM
CC(CO)N1CCN(C(=O)[C@H]2C[C@H](c3c(-c4ccc(F)cc4)[nH]c4c(F)cc(F)cc43)C2)CC1 (mixture of isomers) [Compound 122] | > 1000 nM
O=C(N[C@H](CO)C(F)(F)F)[C@H]1C[C@H](c2c(-c3ccc(F)cc3)[nH]c3c(F)cc(F)cc32)C1 [Compound 164] | 250 to 1000 nM
O=C([C@H]1C[C@H](c2c(-c3ccc(F)cc3)[nH]c3c(F)cc(F)cc32)C1)N1CCCC[C@@H]1CO [Compound 107] | > 1000 nM
O=C([C@H]1C[C@H](c2c(-c3ccc(F)cc3)[nH]c3c(F)cc(F)cc32)C1)N1CC(O)C(N2CCOCC2)C1 (some centres unmarked) [Compound 106] | > 1000 nM
O=C(N[C@@H](CO)C(F)(F)F)[C@H]1C[C@H](c2c(-c3ccc(F)cc3)[nH]c3c(F)cc(F)cc32)C1 [Compound 163] | 250 to 1000 nM
CO[C@H]1CCN(C(=O)[C@H]2C[C@H](c3c(-c4ccc(F)cc4)[nH]c4c(F)cc(F)cc43)C2)C1 [Compound 95] | > 1000 nM
CN(CC(O)CO)C(=O)[C@H]1C[C@H](c2c(-c3ccc(F)cc3)[nH]c3c(F)cc(F)cc32)C1 (some centres unmarked) [Compound 158] | > 1000 nM

More lines, now with the values ahead:

IC50 | SMILES
> 1000 nM | O=C([C@H]1C[C@H](c2c(-c3ccc(F)cc3)[nH]c3c(F)cc(F)cc32)C1)N1C[C@@H]2[C@@H](CO)[C@@H]2C1 [Compound 99]
> 1000 nM | O=C([C@H]1C[C@H](c2c(-c3ccc(F)cc3)[nH]c3c(F)cc(F)cc32)C1)N(CCO)c1cnccn1 [Compound 132]
> 1000 nM | O=C([C@H]1C[C@H](c2c(-c3ccc(F)cc3)[nH]c3c(F)cc(F)cc32)C1)N1CCC[C@@H](CO)C1 [Compound 109]
> 1000 nM | CC1(C)CN(C(=O)[C@H]2C[C@H](c3c(-c4ccc(F)cc4)[nH]c4c(F)cc(F)cc43)C2)CCN1C(=O)[C@H]1C[C@@](C)(O)C1 [Compound 130]
> 1000 nM | O=C([C@H]1C[C@H](c2c(-c3ccc(F)cc3)[nH]c3c(F)cc(F)cc32)C1)N1CCC2(COC2)C1 [Compound 103]
250 to 1000 nM | O=C(NCc1cnco1)[C@H]1C[C@H](c2c(-c3ccc(F)cc3)[nH]c3c(F)cc(F)cc32)C1 [Compound 170]
250 to 1000 nM | CN1CCC(NC(=O)[C@H]2C[C@H](c3c(-c4ccc(F)cc4)[nH]c4c(F)cc(F)cc43)C2)C1=O (some centres unmarked) [Compound 7]
> 1000 nM | O=C([C@H]1C[C@H](c2c(-c3ccc(F)cc3)[nH]c3c(F)cc(F)cc32)C1)N1CCCC[C@@H]1CCO [Compound 156]
> 1000 nM | CC1(C)CN(C(=O)[C@H]2C[C@H](c3c(-c4ccc(F)cc4)[nH]c4c(F)cc(F)cc43)C2)CC1O (some centres unmarked) [Compound 102]
